Results as given in patent US10023575B2, “Cyclic ether derivatives of pyrazolo[1,5-a]pyrimidine-3-carboxyamide” (Boehringer Ingelheim International GmbH, priority 2015, dated 2018).

Assays:
[1] = Metabolic stability in pooled human liver microsomes; format: in vitro ADME; conditions: 1 mg/mL protein, 1 μM compound, 37° C.; for half-life at 1 µM: human, pooled human liver microsomes, pH 7.6, human liver microsomes, read-out: Half-life t½ human; for Half-life t½ human: human liver microsomes
Experimental: The metabolic degradation of the test compound was assayed at 37° C. with pooled liver microsomes from various species. The final incubation volume of 100 μl per time point contains TRIS buffer pH 7.6 at room temperature (0.1 M), magnesium chloride (5 mM), microsomal protein (1 mg/mL for human and dog, 0.5 mg/mL for other species) and the test compound at a final concentration of 1 μM. Following a short preincubation period at 37° C., the reactions were initiated by addition of betanicotinamide adenine dinucleotide phosphate, reduced form (NADPH, 1 mM), and terminated by transferring an aliquot into solvent after different time points. […] The half-life was determined by the slope of the semi-logarithmic plot of the concentration-time profile.

[2] = Plasma protein binding with equilibrium dialysis, human plasma; format: in vitro ADME; conditions: equilibrium dialysis 2 hours 37° C.; for fraction unbound at 2 h, 1 µM: human, pooled human plasma (with NaEDTA), pH 7.4, human plasma, read-out: PPB HUM % BINDING (converted); for PPB HUM % BINDING: human plasma, 1.0 μM
Description: Plasma Protein Binding (Determination of Human and Rat Plasma Protein Binding with Equilibrium Dialysis)
This equilibrium dialysis (ED) technique is used to determine the approximate in vitro fractional binding of test compounds to human and rat plasma proteins.
Dianorm Teflon dialysis cells (micro 0.2) are used. Each cell consists of a donor and an acceptor chamber, separated by an ultrathin semipermeable membrane with a 5 kDa molecular weight cutoff.
Stock solutions for each test compound are prepared in DMSO at 1 mM and diluted to a final concentration of 1.0 μM. The subsequent dialysis solutions are prepared in pooled human and rat plasma (with NaEDTA)
Aliquots of 200 μL dialysis buffer (100 mM potassium phosphate, pH 7.4) are dispensed into the buffer chamber. Aliquots of 200 μL test compound dialysis solution are dispensed into the plasma chambers. Incubation is carried out for 2 hours under rotation at 37° C.
At the end of the dialysis period, the dialysate is transferred into reaction tubes. The tubes for the buffer fraction contain 0.2 ml Acetonitril/water (80/20). Aliquots of 25 μl of the plasma dialysate are transferred into deep well plates and mixed with 25 μl Acetonitril/water (80/20), 25 μl buffer, 25 μl calibration solution and 25 μl Internal Standard solution. Protein precipitation is done by adding 200 μl Acetonitrile. Aliquots of 50 μl of the buffer dialysate are transferred into deep well plates and mixed with 25 μl blank plasma, 25 μl Internal Standard solution and 200 μl Acetonitril. Samples are measured on HPLC-MS/MS-Systems and evaluated with Analyst-Software.
Percent bound is calculated with the formula: % bound=(plasma concentration−buffer concentration/plasma concentration)×100 and % free is calculated as difference.

PDE 2A = PDE 2A (Homo sapiens (Human), UniProt O00408); experiment: Phosphodiesterase (PDE) 2A assay with fluorescent substrate (IMAP, fluorescence polarization); format: biochemical; conditions: labeled cAMP 30 nM, read-out: PDE2 IC50
Chain of PDE 2A (O00408 whole entry, species assumed): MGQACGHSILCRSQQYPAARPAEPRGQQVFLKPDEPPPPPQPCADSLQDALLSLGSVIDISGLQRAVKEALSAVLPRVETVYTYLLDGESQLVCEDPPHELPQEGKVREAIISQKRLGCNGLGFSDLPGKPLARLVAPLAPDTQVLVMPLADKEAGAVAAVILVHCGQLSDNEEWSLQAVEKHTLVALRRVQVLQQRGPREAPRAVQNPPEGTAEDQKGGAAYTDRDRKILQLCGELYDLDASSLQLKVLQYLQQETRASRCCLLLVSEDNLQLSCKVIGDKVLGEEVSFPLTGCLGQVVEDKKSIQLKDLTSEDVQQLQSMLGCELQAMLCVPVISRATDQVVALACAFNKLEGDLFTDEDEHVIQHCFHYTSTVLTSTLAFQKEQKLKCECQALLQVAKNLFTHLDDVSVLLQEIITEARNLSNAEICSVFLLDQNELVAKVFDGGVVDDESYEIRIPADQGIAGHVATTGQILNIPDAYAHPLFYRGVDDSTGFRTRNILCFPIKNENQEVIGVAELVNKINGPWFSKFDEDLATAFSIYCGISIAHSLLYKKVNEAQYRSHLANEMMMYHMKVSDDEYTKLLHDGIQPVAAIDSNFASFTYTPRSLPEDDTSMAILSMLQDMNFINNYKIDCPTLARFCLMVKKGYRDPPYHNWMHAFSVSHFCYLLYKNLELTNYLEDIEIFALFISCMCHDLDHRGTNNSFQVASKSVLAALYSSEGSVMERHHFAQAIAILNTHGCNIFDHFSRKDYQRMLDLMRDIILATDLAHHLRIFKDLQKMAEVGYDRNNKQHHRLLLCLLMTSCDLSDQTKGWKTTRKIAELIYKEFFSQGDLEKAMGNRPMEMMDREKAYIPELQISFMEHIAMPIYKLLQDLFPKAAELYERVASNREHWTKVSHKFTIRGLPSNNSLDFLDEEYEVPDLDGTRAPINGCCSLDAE
Experimental: (§1) The PDE reaction cleaves cAMP to AMP. The IMAP system (Molecular Device) using fluorescence polarization (FP) as detection principle was used to measure enzyme activity. A fluorescent labeled cAMP was used as substrate for the reaction, generating a labeled AMP. The fluorescent AMP binds specifically to the large M(III)-based nano-particles which reduces the rotational speed of the substrate and thus increases its polarization.
(§2) The inhibition of PDE 2A or 10 enzyme activity was assessed using IMAP-Phosphodiesterase-cAMP fluorescence labeled substrate (Molecular Devices, Order No. R7506), IMAP TR-FRET screening express (Molecular Devices, Order No. R8160, the TR-FRET component will not be used) and PDE 2A or PDE10 protein expressed upon baculovirus infection in SF9 cells. The cells were incubated after infection for ˜3 days and protein production was confirmed by Western Blot. The cells were collected by centrifugation and the pellet frozen in liquid nitrogen before it was resuspended in PBS containing 1% Triton X-100 and protease inhibitors. After 45 min incubation on ice, the cell debris was removed by centrifugation (13.000 rpm, 30 min).
(§3) All reactions were performed in 384 well plates, Perkin Elmer black optiplates and IMAP reaction buffer with 0.1% Tween20 (kit component)
(§4) Compounds were serial diluted in DMSO. With an intermediate dilution step with reaction buffer DMSO concentration was reduced to achieve 1% DMSO in the assay reaction. Setup of the assay started with 10 μl enzyme (˜10 ng/well, depending on prep. batch), 5 μl compound, reaction was started by addition of 5 μl labeled cAMP (30 nM, final concentration), immediately mixed for 15 seconds on a Eppendorf mixmate (2000 rpm) followed by an incubation at room temperature for 90 minutes in the dark. Reaction is stopped by adding of 60 μl binding buffer for FP/cAMP (kit component).
(§5) Each assay plate contained wells with vehicle controls (1% DMSO) for the measurement of non-inhibited reaction (=100% control) and wells without enzyme as 0% controls.

PDE10 = PDE10 (Homo sapiens (Human), UniProt Q9Y233); experiment: Phosphodiesterase (PDE) 10 assay with fluorescent substrate (IMAP, fluorescence polarization); format: biochemical; conditions: labeled cAMP 30 nM
Chain of PDE10 (Q9Y233 whole entry): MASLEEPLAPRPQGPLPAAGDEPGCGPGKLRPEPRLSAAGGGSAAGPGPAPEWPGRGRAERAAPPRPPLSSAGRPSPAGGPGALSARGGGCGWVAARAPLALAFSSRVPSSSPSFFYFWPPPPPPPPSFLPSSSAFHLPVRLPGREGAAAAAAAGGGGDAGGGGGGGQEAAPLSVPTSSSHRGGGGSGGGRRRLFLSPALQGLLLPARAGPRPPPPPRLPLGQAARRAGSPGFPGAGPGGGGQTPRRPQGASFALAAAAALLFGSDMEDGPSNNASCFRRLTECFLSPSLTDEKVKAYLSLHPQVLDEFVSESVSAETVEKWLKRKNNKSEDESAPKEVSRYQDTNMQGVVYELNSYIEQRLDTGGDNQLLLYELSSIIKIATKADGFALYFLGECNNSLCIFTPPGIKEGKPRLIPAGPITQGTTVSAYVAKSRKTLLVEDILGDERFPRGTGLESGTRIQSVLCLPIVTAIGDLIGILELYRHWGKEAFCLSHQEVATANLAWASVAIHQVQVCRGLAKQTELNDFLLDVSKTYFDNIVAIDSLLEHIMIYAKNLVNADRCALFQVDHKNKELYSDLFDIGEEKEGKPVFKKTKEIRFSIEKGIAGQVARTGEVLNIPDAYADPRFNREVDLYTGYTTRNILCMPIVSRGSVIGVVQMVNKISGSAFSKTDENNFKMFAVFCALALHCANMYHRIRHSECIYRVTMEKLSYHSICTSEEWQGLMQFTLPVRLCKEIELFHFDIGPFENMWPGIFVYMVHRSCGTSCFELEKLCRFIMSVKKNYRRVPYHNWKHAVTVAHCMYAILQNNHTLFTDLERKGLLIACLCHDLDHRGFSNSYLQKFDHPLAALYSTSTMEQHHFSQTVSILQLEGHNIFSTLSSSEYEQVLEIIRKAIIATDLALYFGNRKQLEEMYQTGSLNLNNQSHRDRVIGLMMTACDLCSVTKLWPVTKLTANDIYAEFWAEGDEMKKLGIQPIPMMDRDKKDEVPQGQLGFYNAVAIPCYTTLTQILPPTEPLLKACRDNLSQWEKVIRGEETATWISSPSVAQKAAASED
Experimental: as §1, §2, §3, §4, §5

Row | half-life at 1 µM [1] | fraction unbound at 2 h, 1 µM [2] | IC50 (PDE 2A) | IC50 (PDE10) | Half-life t½ human [1] | PPB HUM % BINDING [2] | Structure (SMILES)
1 | > 2.17 h | 0.531 | – | – | – | – | Cc1nn2cc(C3CC3)cnc2c1C(=O)NC1(c2ccc(C(F)(F)F)nc2)CCOCC1O (racemic) [Example 51]
2 | – | 0.183 | – | – | – | – | CC1(O)COCCC1(NC(=O)c1cnn2cc(C3CC3)cnc12)c1ccc(C(F)(F)F)cc1F (racemic) [Example 53]
3 | – | – | 0.103 µM | > 10 µM | – | – | O=C(NC1(c2ncc(C(F)(F)F)cc2F)CCOCC1O)c1cnn2cc(C3CC3)cnc12 (racemic) [Example 57]
4 | – | – | 0.06 µM | > 10 µM | – | – | Cc1cnc2c(C(=O)NC3(c4ccc(C(F)(F)F)cc4)CCOCC3O)cnn2c1 (racemic) [Example 59]
5 | – | – | 0.019 µM | 6.65 µM | – | – | Cc1nn2cc(C3CC3)cnc2c1C(=O)NC1(c2ncc(C(F)(F)F)cc2F)CCOCC1O (racemic) [Example 61]
6 | – | – | 0.124 µM | > 10 µM | – | – | O=C(NC1(c2ccc(C(F)(F)F)cn2)CCOCC1O)c1cnn2cc(C3CC3)cnc12 (racemic) [Example 63]
7 | – | – | 0.496 µM | > 10 µM | – | – | Cc1cnc2c(C(=O)NC3(c4ccc(C(F)(F)F)cn4)CCOCC3O)cnn2c1 (racemic) [Example 64]
8 | – | – | 0.03 µM | 9.76 µM | – | – | Cc1nn2cc(C3CC3)cnc2c1C(=O)NC1(c2ccc(C(F)(F)F)cn2)CCOCC1O (racemic) [Example 65]
9 | – | – | 0.024 µM | > 10 µM | >2.17 h | 84.4% | O=C(NC1(c2ccc(C(F)(F)F)cc2F)COCC1O)c1cnn2cc(C3CC3)cnc12 (single isomer, unassigned) [Example 68]
10 | – | – | 1.74 µM | > 10 µM | 0.883 h | 90.7% | O=C(NC1(c2ccc(C(F)(F)F)cc2F)COCC1O)c1cnn2cc(C3CC3)cnc12 (single isomer, unassigned) [Example 69]
11 | – | – | 0.04 µM | 8.46 µM | – | – | O=C(NC1(c2ccc(C(F)(F)F)cc2F)CCOCC1O)c1cnn2cc(C3CC3)cnc12 (single isomer, unassigned) [Example 82b]
12 | – | – | 1 µM | > 10 µM | – | – | Cc1cnc2c(C(=O)NC3(c4ccc(C(F)(F)F)nc4)CCOCC3O)cnn2c1 (single isomer, unassigned) [Example 87a]
13 | > 2.17 h | 0.558 | – | – | – | – | Cc1nn2cc(C3CC3)cnc2c1C(=O)NC1(c2ccc(C(F)(F)F)nc2)CCOCC1O (single isomer, unassigned) [Example 88b]
14 | – | – | 1 µM | > 10 µM | – | – | O=C(NC1(c2ccc(C(F)(F)F)nc2)CCOCC1O)c1cnn2cc(C3CC3)cnc12 (single isomer, unassigned) [Example 89a]
15 | – | – | 0.2 µM | 8.59 µM | – | – | Cc1nn2cc(C3CC3)cnc2c1C(=O)NC1(c2ncc(C(F)(F)F)cc2F)CCOCC1O (single isomer, unassigned) [Example 90a]
16 | – | – | 0.014 µM | 7.35 µM | – | – | Cc1nn2cc(C3CC3)cnc2c1C(=O)NC1(c2ncc(C(F)(F)F)cc2F)CCOCC1O (single isomer, unassigned) [Example 90b]
17 | 1.2 h | 0.157 | 0.266 µM | > 10 µM | – | – | O=C(NC1(c2ccc(C(F)(F)F)cc2F)CCOCC1)c1cnn2cc(F)cnc12 [Example 3]
18 | – | – | 0.048 µM | 0.55 µM | – | – | Cc1cnc2c(C(=O)NC3(c4ccc(Cl)cc4F)CCOCC3)c(C)nn2c1 [Example 4]
19 | – | – | 0.258 µM | 12.2 µM | – | – | Cc1cnc2c(C(=O)NC3(c4ccc(Cl)cc4F)CCOCC3)cnn2c1 [Example 5]
20 | – | – | 0.199 µM | > 10 µM | – | – | O=C(NC1(c2ccc(F)cc2Cl)CCOCC1)c1cnn2cc(C3CC3)cnc12 [Example 6]
21 | – | – | 0.077 µM | 9.11 µM | – | – | O=C(NC1(c2ccc(Cl)cc2F)CCOCC1)c1cnn2cc(C3CC3)cnc12 [Example 7]

Row | half-life at 1 µM [1] | fraction unbound at 2 h, 1 µM [2] | IC50 (PDE 2A) | IC50 (PDE10) | Half-life t½ human [1] | PPB HUM % BINDING [2] | Structure (SMILES)
22 | – | – | 0.069 µM | > 10 µM | – | – | O=C(NC1(c2ccc(C(F)(F)F)cc2)CCOCC1)c1cnn2cc(C3CC3)cnc12 [Example 8]
23 | – | – | 0.117 µM | > 10 µM | – | – | Cc1cnc2c(C(=O)NC3(c4ccc(C(F)(F)F)cc4)CCOCC3)cnn2c1 [Example 9]
24 | – | – | 0.297 µM | 1.47 µM | – | – | Cc1nn2cc(C3CC3)cnc2c1C(=O)NC1(c2ccc3ccccc3n2)CCOCC1 [Example 11]
25 | – | – | 1.65 µM | > 10 µM | – | – | Cc1cnc2c(C(=O)NC3(c4ccc5ccccc5n4)CCOCC3)cnn2c1 [Example 12]
26 | – | – | 0.359 µM | 9.91 µM | – | – | O=C(NC1(c2ccc(Br)cc2)CCOCC1)c1cnn2cc(C3CC3)cnc12 [Example 13]
27 | – | – | 0.456 µM | 8.43 µM | – | – | O=C(NC1(c2ccc(OC(F)F)c(F)c2)CCOCC1)c1cnn2cc(C3CC3)cnc12 [Example 14]
28 | – | – | 0.746 µM | > 10 µM | – | – | Cc1cnc2c(C(=O)NC3(c4ccc(OC(F)F)c(F)c4)CCOCC3)cnn2c1 [Example 15]
29 | – | – | 0.537 µM | > 10 µM | – | – | O=C(NC1(c2ccc(Cl)c(F)c2)CCOCC1)c1cnn2cc(C3CC3)cnc12 [Example 16]
30 | – | – | 0.129 µM | 8.63 µM | – | – | Cc1cnc2c(C(=O)NC3(c4ncc(C(F)(F)F)cc4F)CCOCC3)c(C)nn2c1 [Example 18]
31 | – | – | 0.519 µM | > 10 µM | – | – | Cc1cnc2c(C(=O)NC3(c4ncc(C(F)(F)F)cc4F)CCOCC3)cnn2c1 [Example 19]
32 | – | – | 0.172 µM | > 10 µM | – | – | O=C(NC1(c2ncc(C(F)(F)F)cc2F)CCOCC1)c1cnn2cc(C3CC3)cnc12 [Example 20]
33 | – | – | 0.119 µM | 9.92 µM | – | – | Cc1cnc2c(C(=O)NC3(c4ccc(C(F)(F)F)cn4)CCOCC3)c(C)nn2c1 [Example 22]
34 | – | – | 0.232 µM | > 10 µM | – | – | O=C(NC1(c2ccc(C(F)(F)F)cn2)CCOCC1)c1cnn2cc(C3CC3)cnc12 [Example 23]
35 | – | – | 0.754 µM | > 10 µM | – | – | Cc1cnc2c(C(=O)NC3(c4ccc(C(F)(F)F)cn4)CCOCC3)cnn2c1 [Example 24]
36 | – | – | 0.174 µM | > 10 µM | – | – | Cc1cnc2c(C(=O)NC3(c4ccc(C(F)(F)F)nc4)CCOCC3)c(C)nn2c1 [Example 26]
37 | – | – | 0.534 µM | > 10 µM | – | – | O=C(NC1(c2ccc(C(F)(F)F)nc2)CCOCC1)c1cnn2cc(C3CC3)cnc12 [Example 27]
38 | – | – | 0.834 µM | > 10 µM | – | – | Cc1cnc2c(C(=O)NC3(c4ccc(C(F)(F)F)nc4)CCOCC3)cnn2c1 [Example 28]
39 | – | – | 0.661 µM | 5.93 µM | – | – | Cc1nn2cc(C3CC3)cnc2c1C(=O)NC1(c2cnc(C(F)(F)F)c(F)c2)CCOCC1 [Example 29]
40 | – | – | 0.025 µM | > 10 µM | – | – | O=C(NC1(c2ccc(C(F)(F)F)cc2F)CCOCC1=O)c1cnn2cc(C3CC3)cnc12 (stereo not drawn) [Example 66]
41 | – | – | 0.05 µM | > 10 µM | – | – | Cc1cnc2c(C(=O)NC3(c4ccc(C(F)(F)F)cc4F)CCOCC3=O)cnn2c1 (stereo not drawn) [Example 67]
